{
  "source": "patent US8507440B2",
  "about": "“Protein kinase C peptides for use in withdrawal” (The Board of Trustees of the Leland Stanford Junior …, priority 2002, dated 2013)",
  "key": {"[1]": {"system": "N-methyl-D-aspartate (NMDA) receptor currents", "assay": "alcohol withdrawal hyperresponsiveness of NMDA-evoked currents in lumbar spinal cord slice motor neurons", "assay_type": "cell-based, rat", "description": "Spinal cords were taken from young rats, and slices of these cords were made and placed in artificial cerebrospinal fluid for patch clamp electrophysiological analysis, to characterize the ability of γPKC peptides to mediate alcohol withdrawal hyperresponsiveness of N-methyl-D-aspartate (NMDA) receptor currents. FIG. 7A is a schematic diagram of the technique, where a lumbar spinal cord slice 10 is shown. The placement of a recording electrode 12 and a pipette 14 for application of NMDA relative to a motor neuron 16 is illustrated.\nSprague-Dawley rats at postnatal day 7-10 were anesthetized with halothane, decapitated, and the spinal cords were quickly removed. Slices […] thick were sectioned from the lumbar region. Whole cell voltage clamp recordings were made from visually-identified motor neurons using infrared video microscopy, a 60× water immersion lens, and a MultiClamp 700A patch clamp amplifier. Cells were held at a holding potential of −60 mV in artificial cerebrospinal fluid (ACSF) containing bicuculline methiodide ([…]), strychnine ([…]), and tetrodotoxin ([…]). Postsynaptic currents were evoked by direct pressure application of 2 mM N-methyl-D-aspartate (NMDA) from a pipette positioned near the recorded cell at 1-2 min intervals, as illustrated in FIG. 7A. The area of evoked currents during and following 100 mM ethanol (EtOH) application was measured and normalized to the average baseline current area during the 10 minutes preceding EtOH application. Data are expressed as mean +/−SEM: Statistical significance was determined by one-way ANOVA followed by Dunn's or Tukey's multiple comparison test with significance set at p<0.05."}, "isolated spinal cords": {"system": "isolated spinal cords", "assay": "slow ventral root potential (sVRP) of isolated spinal cord, naloxone-precipitated morphine withdrawal hyperresponsiveness", "assay_type": "cell-based, rat", "conditions": "for sVRP area 30 minutes after naloxone / block of naloxone-precipitated withdrawal hyperresponsiveness of sVRP: morphine 200 nM then naloxone 200 nM, GF109203X 1.2 μM, Go6976 1 μM, εV1-2 2 nM; for block of naloxone-precipitated withdrawal hyperresponsiveness of sVRP: γV5-3 4 nM, Tat 2-4 nM", "description": "The slow ventral root potential (sVRP) is an electrophysiolgical measurement of nociceptive-related response in the spinal cord lasting approximately 40 seconds (Yanagisawa et al., Eur. J. Pharmacol., 106:231-239 (1984); Akagi H. et al., British J. Pharmacol., 84:663-673 (1985); Otsuka M. et al., J. Physiol., 395:255-270 (1988)). It is evoked by stimulation of a lumbar dorsal root at an intensity sufficient to activate small diameter afferents that transmit nociceptive (painful) stimuli from the periphery to the spinal cord (Lozier A. P. et al., J. Neurophysiol., 74:1001-1009 (1995)). […] Thus, the sVRP is related to pain, and its exaggeration following naloxone is a manifestation of withdrawal which translates to an increase in pain sensation in vivo.\nSpinal cords from 4-7 day old rats (Charles River Laboratories) were removed and arranged for electrophysiological recording of the slow ventral root potentials (sVRP) (Woodley S. J., et al., Brain Res., 559:17-21 (1991). Briefly, pups were decapitated under halothane anesthesia and the spinal cord removed to an oxygenated artificial cerebrospinal fluid solution. A suction stimulating electrode was placed on a lumbar dorsal root and a suction recording electrode on the corresponding ipsilateral ventral root. Square wave stimuli 0.2 ms in duration were administered at a constant frequency of 1/50 seconds throughout the experiment. Test agents were applied and the responses were recorded, digitized, and area under the curve measured.\nAfter a baseline reading of the sVRP, morphine (200 nM) was applied to the isolated spinal cords. The sVRP was again recorded to characterize the response to morphine. Naloxone (200 nM) was then applied and the sVRPs recorded.\nFIGS. 2A-2D show the results after application of non-specific PKC antagonist, GF109203X (1.2 μM), and of an inhibitor specific to Ca++-dependent PKC isoforms, Go6976 (1 μM).\nFIGS. 3A-3B show the results after application of the εPCK antagonist (εV1-2; SEQ ID NO:1, 2 nM), conjugated to a peptide carrier (Tat; SEQ ID NO:3) and the Tat peptide alone (2 nM; SEQ ID NO:3). FIGS. 3C-3D show the results after application of γPKC (γV5-3; SEQ ID NO:2, 4 nM) conjugated to a peptide carrier (Tat; SEQ ID NO:3) and of the Tat peptide alone (4 nm; SEQ ID NO:3)."}, "postnatal day 7 rats": {"system": "postnatal day 7 rats", "assay": "naloxone-precipitated morphine withdrawal, mechanical threshold and thermal paw withdrawal latency in vivo", "parameters": "species or system rat", "conditions": "for block of naloxone-precipitated morphine withdrawal allodynia and hyperalgesia: 10 μM in 5 μl intrathecally prior to morphine 1 mg/kg s.c., naloxone 0.25 mg/kg 30 min after morphine", "protocol": "In vivo studies on opiate withdrawal allodynia and hyperalgesia were conducted using postnatal day 7 rats. As described in Example 2, postnatal day 7 rats were given morphine subcutaneously followed 30 minutes later by naloxone or saline. Mechanical threshold using von Frey filaments to produce the flexion withdrawal response of the hind paw and thermal stimulation to measure the paw withdrawal latency were measured as described in Example 2.\nFIG. 5A illustrates a treatment protocol where rat pups were given a PKC antagonist intrathecally (e.g., directly into the cerebrospinal fluid surrounding the spinal cord) prior to subcutaneous morphine delivery. Thirty minutes after morphine delivery, naloxone was administered, followed by mechanical allodynia and thermal hyperalgesia testing (as described in Example 2).\nPostnatal day 7 Sprague-Dawley rats (Charles River Laboratories) of both sexes were used. For all behavioural experiments rats were maintained at nesting temperature with overhead heatlamps.\nTo measure mechanical thresholds, rats were placed on an elevated wire mesh (2 mm openings). Von Frey hairs (Stoelting Co., WoodDale, Ill., USA) were used to elicit a cutaneous flexion withdrawal response as described by Fitzgerald et al. (Fitzgerald M., et al., PAIN […] INFANTS, CHILDREN AND ADOLESCENTS; Schetchter and Yaster, Eds., pp 11-32, Williams and Williams (Baltimore, Md.) (1993). Von Frey hairs of increasing intensity were applied three times to the plantar surface of the left hind paw until a paw withdrawal was elicited. The lowest intensity Von Frey hair required to produce a withdrawal reflex was recorded as the response threshold to a low-intensity mechanical stimulus.\nThermal paw withdrawal latencies were measured using the Ugo Basile Plantar Testing apparatus (Stoelting Co., WoodDale, Ill., USA). Briefly, postnatal day 7 rats were placed under inverted Plexiglas enclosures and the plantar surface of the left hindpaw was heated from below with the IR intensity of the lamp set at 30. Two baseline thermal response latency measures were collected prior to morphine administration with a cut-off of 20 seconds enlisted to prevent tissue damage.\nPostnatal day 7 rats were administered 1 mg/kg morphine sulfate (Sigma) subcutaneously in 50 μl saline. Mechanical thresholds were measured 15 minutes later to establish analgesia. Rats were returned to their dam. At 30 or 120 minutes post morphine, rats were administered 0.25 mg/kg naloxone (Sigma) subcutaneously in 50 μl saline. Mechanical thresholds and thermal paw withdrawal latencies were measured in 10 minute intervals. Tat conjugated peptide inhibitors specific to the ε (εV1-2; SEQ ID NO:1, 10 μM) and γ ([…]; SEQ ID NO:2, 10 μM) isoforms of PKC, Tat carrier (10 μM), or saline were administered in 5 μl volumes intrathecally via direct lumbar puncture using a sterile 29 gauge 3/10 cc insulin syringe in rats lightly anesthetized with halothane. To allow for complete recovery from anesthetic, animals were administered peptides or control solutions 30 minutes prior to naloxone.\nAn unpaired T-test was used to determine the significance of post-naloxone measures from baseline measures. Significance between treatment groups for PKC inhibitor studies both in vivo and in vitro was determined by one way analysis of variance (ANOVA) followed by a post-hoc Bonferroni analysis. P-values<0.05 were considered significant. All statistical analysis was done with GraphPad Prism version 3.02."}, "[2]": {"system": "7 day old and 21 day old rats", "assay": "ethanol withdrawal mechanical allodynia testing (von Frey threshold withdrawal force)", "assay_type": "in vivo, rat"}, "[3]": {"system": "7 day old and 21 day old rats", "assay": "ethanol withdrawal thermal hyperalgesia testing (paw withdrawal latency)", "assay_type": "in vivo, rat", "conditions": "7 day old rats; intrathecally 4 hours after 4 g/kg 15% EtOH"}},
  "note": "Ends that are not written are not given here.",
  "data": [
    {"molecule": "O=C(O)CN(CC(=O)O)c1ccccc1OCCOc1ccccc1N(CC(=O)O)CC(=O)O", "note": "[BAPTA, 1,2-bis(2-aminophenoxy)ethane-N,N,N′,N′-tetraacetic acid, reference compound]", "values": [
      {"measurement": "ethanol withdrawal hyperresponsiveness of NMDA-evoked currents with calcium chelator", "setting": "[1]; 30 mM in recording pipette", "value": "no ethanol-withdrawal hyperresponsiveness"}
    ]},
    {"molecule": "CN(C)CCCn1cc(C2=C(c3c[nH]c4ccccc34)C(=O)NC2=O)c2ccccc21", "note": "[GF109203X]", "values": [
      {"measurement": "sVRP area 30 minutes after naloxone", "setting": "isolated spinal cords", "value": "87 % of control"},
      {"measurement": "block of naloxone-precipitated withdrawal hyperresponsiveness of sVRP", "setting": "isolated spinal cords", "value": "blocked the withdrawal hyperresponsivess"}
    ]},
    {"molecule": "Cn1c2ccccc2c2c3c(c4c5ccccc5n(CCC#N)c4c21)CNC3=O", "note": "[Go6976]", "values": [
      {"measurement": "sVRP area 30 minutes after naloxone", "setting": "isolated spinal cords", "value": "127.4 % of control"},
      {"measurement": "block of naloxone-precipitated withdrawal hyperresponsiveness of sVRP", "setting": "isolated spinal cords", "value": "did not block withdrawal"}
    ]},
    {"molecule": "COc1ccc2c(c[n+](C)c3c4cc5c(cc4ccc23)OCO5)c1OC", "note": "[chelerythrine]", "values": [
      {"measurement": "sVRP area 30 minutes after naloxone", "setting": "isolated spinal cords", "value": "100.1 % of control"},
      {"measurement": "block of naloxone-precipitated withdrawal hyperresponsiveness of sVRP", "setting": "isolated spinal cords", "value": "did block morphine withdrawal"},
      {"measurement": "effect on the response to morphine", "setting": "isolated spinal cords; morphine-exposed spinal cords", "value": "did not alter the response to morphine"}
    ]},
    {"molecule": "CN1CC[C@]23c4c5ccc(O)c4O[C@H]2[C@@H](O)C=C[C@H]3[C@H]1C5", "note": "[morphine]", "values": [
      {"measurement": "paw withdrawal threshold and latency after morphine", "setting": "postnatal day 7 rats; morphine 1 mg/kg s.c., then saline", "value": "exhibited profound analgesia"},
      {"measurement": "effect of morphine on sVRP", "setting": "isolated spinal cords; morphine 200 nM", "value": "depressed"}
    ]},
    {"molecule": "C=CCN1CC[C@]23c4c5ccc(O)c4O[C@H]2C(=O)CC[C@@]3(O)[C@H]1C5", "note": "[naloxone]", "values": [
      {"measurement": "mechanical threshold and paw withdrawal latency, naloxone after morphine", "setting": "postnatal day 7 rats; naloxone 0.25 mg/kg s.c. following 30 minutes of morphine exposure", "value": "precipitated mechanical allodynia and thermal hyperalgesia"},
      {"measurement": "mechanical threshold and paw withdrawal latency, naloxone alone", "setting": "postnatal day 7 rats; no morphine", "value": "did not alter paw withdrawal thresholds to mechanical stimulation or paw withdrawal latency to thermal stimulation"},
      {"measurement": "sVRP area 30 minutes after naloxone", "setting": "isolated spinal cords", "value": "140.9 % of control"}
    ]},
    {"molecule": "Tat: Tat-derived carrier peptide (Tat 47-57), control for the conjugated inhibitors", "values": [
      {"measurement": "block of naloxone-precipitated morphine withdrawal allodynia and hyperalgesia", "setting": "postnatal day 7 rats", "value": "did not prevent allodynia and hyperalgesia"},
      {"measurement": "effect on ethanol withdrawal hyperresponsiveness of NMDA-evoked currents", "setting": "[1]; 10 nM Tat carrier alone", "value": "does not prevent the symptom"},
      {"measurement": "block of naloxone-precipitated withdrawal hyperresponsiveness of sVRP", "setting": "isolated spinal cords", "value": "did not block the withdrawal response"}
    ]},
    {"molecule": "εV1-2: εPKC antagonist peptide, SEQ ID NO:1, isozyme-specific translocation inhibitor, used Tat-conjugated (EAVSLKPT; also: Tat peptide conjugate; listed as Homo sapiens)", "values": [
      {"measurement": "mechanical allodynia, threshold withdrawal force", "setting": "[2]; 7 day old rats, 5 μL of 20 μM intrathecally 5 hours after 4 g/kg 15% EtOH i.p., 6 and 7 hour post-EtOH, versus Tat carrier", "value": "attenuated mechanical allodynia"},
      {"measurement": "mechanical allodynia, threshold withdrawal response", "setting": "[2]; 21 day old rats, 10 μL of 20 μM intrathecally 4 hours after 4 g/kg 15% EtOH i.p.", "value": "slightly attenuated the response at 6 hours and 8 hours post ethanol injection"},
      {"measurement": "block of naloxone-precipitated morphine withdrawal allodynia and hyperalgesia", "setting": "postnatal day 7 rats", "value": "effective to block naloxone-precipitated morphine withdrawal allodyina and hyperalgesia"},
      {"measurement": "thermal hyperalgesia, paw withdrawal latency", "setting": "[3]", "value": "completely prevented thermal hyperalgesia"},
      {"measurement": "effect on sVRP of inhibitor alone", "setting": "isolated spinal cords; absence of morphine", "value": "did not alter the sVRP"},
      {"measurement": "sVRP area 30 minutes after naloxone", "setting": "isolated spinal cords", "value": "102 % of control"},
      {"measurement": "block of naloxone-precipitated withdrawal hyperresponsiveness of sVRP", "setting": "isolated spinal cords", "value": "blocked withdrawal hyperresponsiveness"}
    ]}
  ]
}
